Changes are numbered by the printed parent chain. Where “and” joins values, the source holds several entries; their conditions need not be identical. Identical values can stand only once. Peptide text beside a SMILES is read from it.

The conditions of data set [1]: compared with heptapeptide 18–24; ref [30]; cited from earlier work. The protocol:
The corresponding synthetic XIP peptide […] as well as the variants used in the functional analysis were supplied by GenScript or Peptide 2.0 (Chantilly, VA) and resuspended at a concentration of 50 mM in 50% DMSO / 50% protein stora ...

The target in data set [2] is ComR Y91A (Streptococcus thermophilus, UniProt A0A1L1QK15, Y91A). Nature of the data set: ITC, XIP binding on ComR Y91A. Also on record: species or system Streptococcus thermophilus LMD-9. The protocol:
(§1) Purification of ComR-StreptagII proteins (StreptagII at C-terminus) was performed as described previously with some modifications. E. coli strain BL21 Gold cultures were grown in 2YT medium at 15°C until an OD600 of ~ 0.5, cooled down on ice for 10 minutes, and induced by addition of 0.2% of L-arabinose (wt vol^-1) before continuous shaking at 28°C for 4 h. Cells were then harvested by centrifugation (5,000 × g during 15 min at 8°C). The pellets were resuspended in cold buffer W (100 mM Tris-HCl pH 8.0, 150 mM NaCl, 1 mM EDTA) supplemented with 0.5 mg ml^−1 of lysozyme, incubated for 30 min at 4°C, and sonicated at 4°C. […] Their purity was visualized by SDS-PAGE and their concentrations were measured using a Nanodrop apparatus (protein A280 method) (ThermoFisher Scientific).
(§2) Isothermal titration calorimetry (ITC) experiments were performed at 20°C in 20 mM Tris-HCl pH 8.0, 150 mM NaCl, 1 mM EDTA with an ITC200 calorimeter (Microcal). […] The peptide concentration used in the calculations is based on the weight of the lyophilized peptide and is therefore inaccurate because there may be a significant quantity of bound water, and salts or counter ions. However, the calculated number of binding sites, n, is always close to 1, in agreement with the 1:1 ratio observed in the crystal structure of the ternary complex. […] The calculated KD are therefore apparent values.
(In general: ITC needs no label: the signal is the heat of the interaction.)

In data set [3] the target is ComR K87A/K246A (Streptococcus thermophilus, UniProt A0A1L1QK15, K87A/K246A). Nature of the data set: ITC, XIP binding on ComR K87A/K246A. On the set-up: species or system Streptococcus thermophilus LMD-9. Particulars: ITC, ComR K87A/K246A. The protocol:
as §1, §2

For data set [4], the target named is ComR K87A/K246A (Streptococcus thermophilus, UniProt A0A1L1QK15, K246A/K87A). Nature of the data set: ITC, XIP binding on ComR K87A/K246A. Also on record: species or system Streptococcus thermophilus LMD-9. The protocol: as §1, §2
For data set [5], the target named is ComR WT (Streptococcus thermophilus, UniProt A0A1L1QK15). The data set can be described thus: biochemical. It counts as binding, Streptococcus thermophilus LMD-9. Particulars: KD. The protocol:
Purification of ComR-StreptagII proteins (StreptagII at C-terminus) was performed as described previously with some modifications. E. coli strain BL21 Gold cultures were grown in 2YT medium at 15°C until an OD600 of ~ 0.5, cooled down on ice for 10 minutes, and induced by addition of 0.2% of L-arabinose (wt vol^-1) before continuous shaking at 28°C for 4 h. Cells were then harvested by centrifugation (5,000 × g during 15 min at 8°C). The pellets were resuspended in cold buffer W (100 mM Tris-HCl pH 8.0, 150 mM NaCl, 1 mM EDTA) supplemented with 0.5 mg ml^−1 of lysozyme, incubated for 30 min at 4°C, and sonicated at 4°C. […] For structural and biophysical analyses, the purification protocol was completed by a size exclusion chromatography step using a HiLoad 16/600 Superdex 75 prep grade column (GE Healthcare) equilibrated in buffer W plus 10% (vol vol^-1) glycerol. Purified proteins were aliquoted, flash frozen and conserved at -20°C. Their purity was visualized by SDS-PAGE and their concentrations were measured using a Nanodrop apparatus (protein A280 method) (ThermoFisher Scientific).
Isothermal titration calorimetry (ITC) experiments were performed at 20°C in 20 mM Tris-HCl pH 8.0, 150 mM NaCl, 1 mM EDTA with an ITC200 calorimeter (Microcal). The protein concentration in the microcalorimeter cell and the peptide concentration in the syringe were set at 50 μM and 500 μM, respectively. A first injection of 0.4 μl, which was not taken into account for the fitting, was followed by 20 injections of 2 μl at intervals of 180 s. The peptide concentration used in the calculations is based on the weight of the lyophilized peptide and is therefore inaccurate because there may be a significant quantity of bound water, and salts or counter ions. However, the calculated number of binding sites, n, is always close to 1, in agreement with the 1:1 ratio observed in the crystal structure of the ternary complex. […] The data were analyzed using the MicroCal Origin software provided by the manufacturer. […] It was therefore not possible to distinguish the two events and the fitting was performed with the one-binding-site model. The calculated KD are therefore apparent values.

For data set [6], the target named is ComR R92A (Streptococcus thermophilus, UniProt A0A1L1QK15, R92A). Nature of the data set: ITC, XIP binding on ComR R92A. On the set-up: species or system Streptococcus thermophilus LMD-9. As for the experimental part: as §1, §2
The target in data set [7] is ComR F171A/Y174A (Streptococcus thermophilus, UniProt A0A1L1QK15, F171A/Y174A). The data set can be described thus: ITC, XIP binding on ComR F171A/Y174A. On the set-up: species or system Streptococcus thermophilus LMD-9. As for the experimental part:
as §1, §2

Data set [8] has as its target ComR K100A (Streptococcus thermophilus, UniProt A0A1L1QK15, K100A). Nature of the data set: ITC, XIP binding on ComR K100A. On the set-up: species or system Streptococcus thermophilus LMD-9. The protocol:
as §1, §2

Data set [9] addresses ComR T90A (Streptococcus thermophilus, UniProt A0A1L1QK15, T90A). Nature of the data set: ITC, XIP binding on ComR T90A. On the set-up: species or system Streptococcus thermophilus LMD-9. The protocol:
as §1, §2

In data set [10] the target is T1, ComR E146A/D147A (Streptococcus thermophilus LMD-9, UniProt PDB:5JUB_1 1-310, E146A;D147A).
T1 sequence: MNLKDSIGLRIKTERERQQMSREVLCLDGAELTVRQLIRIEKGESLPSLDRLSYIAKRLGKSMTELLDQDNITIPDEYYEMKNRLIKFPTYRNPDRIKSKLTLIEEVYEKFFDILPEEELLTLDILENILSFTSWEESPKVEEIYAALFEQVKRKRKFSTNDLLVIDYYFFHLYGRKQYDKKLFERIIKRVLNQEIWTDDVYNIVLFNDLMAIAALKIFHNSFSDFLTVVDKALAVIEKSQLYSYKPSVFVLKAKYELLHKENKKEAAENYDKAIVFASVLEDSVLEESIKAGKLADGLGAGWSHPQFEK
The data set can be described thus: EMSA; no XIP; ComR 4 uM; strong, multimeric complexes; EMSA: 20 mM Tris-HCl pH 8.0, 150 mM NaCl, 1 mM EDTA, 10% glycerol, 1 mg/ml BSA, 37 C 10 min, 40 ng DNA in 20 ul; crystal: 30% PEG 550 MME, 0.1 M MgCl2, 0.05 M Tris-HCl pH 8.5, 18 C. Particulars: protein: recombinant; tags: C-terminal StreptagII; chain copies: 2; label: Cy3 (Methods: Alexa 555), direct strand; blunt. Background: A gel shift assay detects complexes by their altered migration in electrophoresis.

Data set [11] addresses T2, ComR K87A/K246A (Streptococcus thermophilus LMD-9, UniProt PDB:5JUB_1 1-310, K87A;K246A).
T2 sequence: T1 sequence with K87A, A146E, A147D, K246A
The data set can be described thus: EMSA; XIP up to 1.2 uM; ComR 4 uM; EMSA: 20 mM Tris-HCl pH 8.0, 150 mM NaCl, 1 mM EDTA, 10% glycerol, 1 mg/ml BSA, 37 C 10 min, 40 ng DNA in 20 ul; crystal: 30% PEG 550 MME, 0.1 M MgCl2, 0.05 M Tris-HCl pH 8.5, 18 C. Particulars: protein: recombinant; tags: C-terminal StreptagII; chain copies: 2; label: Cy3 (Methods: Alexa 555), direct strand; blunt.

Data set [12] deals with T3, ComR WT (Streptococcus thermophilus LMD-9, UniProt PDB:5JUB_1 1-310).
T3 sequence: T1 sequence with A146E, A147D
The data set can be described thus: EMSA; XIP 0.2-1.2 uM; ComR 4 uM; EMSA: 20 mM Tris-HCl pH 8.0, 150 mM NaCl, 1 mM EDTA, 10% glycerol, 1 mg/ml BSA, 37 C 10 min, 40 ng DNA in 20 ul; crystal: 30% PEG 550 MME, 0.1 M MgCl2, 0.05 M Tris-HCl pH 8.5, 18 C. Particulars: protein: recombinant; tags: C-terminal StreptagII; chain copies: 2; label: Cy3 (Methods: Alexa 555), direct strand; blunt.

Chain of ComR R92A (A0A1L1QK15 entry or part of it R92A): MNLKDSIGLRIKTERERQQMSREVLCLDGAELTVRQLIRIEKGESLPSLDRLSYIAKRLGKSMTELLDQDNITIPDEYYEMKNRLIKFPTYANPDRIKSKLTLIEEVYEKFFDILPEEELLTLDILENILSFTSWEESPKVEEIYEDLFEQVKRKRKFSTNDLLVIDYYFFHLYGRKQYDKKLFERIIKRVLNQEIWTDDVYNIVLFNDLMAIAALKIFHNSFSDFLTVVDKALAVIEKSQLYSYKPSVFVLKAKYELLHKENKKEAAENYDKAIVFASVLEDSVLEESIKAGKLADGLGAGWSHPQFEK
Chain of ComR WT (Streptococcus thermophilus, UniProt A0A1L1QK15) (A0A1L1QK15 entry or part of it): as the sequence (A0A1L1QK15 entry or part of it R92A) above, with A92R counted along it
Chain of ComR Y91A (A0A1L1QK15 entry or part of it Y91A): as the sequence (A0A1L1QK15 entry or part of it R92A) above, with Y91A, A92R counted along it
Chain of ComR K100A (A0A1L1QK15 entry or part of it K100A): as the sequence (A0A1L1QK15 entry or part of it R92A) above, with A92R, K100A counted along it
Chain of ComR K87A/K246A (Streptococcus thermophilus, UniProt A0A1L1QK15, K246A/K87A) (A0A1L1QK15 entry or part of it K87A/K246A): as the sequence (A0A1L1QK15 entry or part of it R92A) above, with K87A, A92R, K246A counted along it
Chain of ComR K87A/K246A (Streptococcus thermophilus, UniProt A0A1L1QK15, K87A/K246A) (A0A1L1QK15 entry or part of it K87A/K246A): as the sequence (A0A1L1QK15 entry or part of it R92A) above, with K87A, A92R, K246A counted along it
Chain of ComR T90A (A0A1L1QK15 entry or part of it T90A): as the sequence (A0A1L1QK15 entry or part of it R92A) above, with T90A, A92R counted along it
Chain of ComR F171A/Y174A (A0A1L1QK15 entry or part of it F171A/Y174A): as the sequence (A0A1L1QK15 entry or part of it R92A) above, with A92R, F171A, Y174A counted along it

Broadly, the Kd is the concentration at which binding is half-saturated. High values mean a looser complex, low ones a tighter complex. Regarding `CC(C)C[C@H](NC(=O)[C@H](CS)NC(=O)CNC(=O)[C@H](C)NC(=O)[C@H](Cc1ccccc1)NC(=O)[C@H](Cc1ccc(O)cc1)NC(=O)[C@@H]1CCCN1C(=O)[C@@H](N)CC(C)C)C(=O)O` [XIP] (H-LPYFAGCL-OH), the stability result in data set [1] is recorded as “more stable”. Moreover, the dissociation constant (Kd) in data set [2] is 141 ± 33 nM; in data set [4], 9 ± 3 nM; in [5], 10 nM and 8 nM; in [6], 277 ± 23 nM; in data set [7], 87 ± 9 nM; in [8], 1170 ± 245 nM. The Kd in data set [9] stood at 244 ± 108 nM. In data set [2] (ITC, ComR Y91A), the “KD value in words” value was “same order of magnitude than observed with T90A mutant”. Besides, the affinity in words entry in data set [3] is “did not affect the affinity of ComR for the XIP peptide”; in data set [6] (ITC, ComR R92A), “decreased affinity for XIP”.

B1: Cy3-boxPster_1655 wt (40 bp) (dsDNA)
DNA 1: CAAAATCGAGTAGTGACATTTATGTCACTACTTTTTTGTT
DNA 2: AACAAAAAAGTAGTGACATAAATGTCACTACTCGATTTTG
On to B1, for which the binding result in [10] was “binds”; in data set [11] it was “no binding”; in [12] it was “binds”.

The record behind these values is article PMC5131891, “Structural Insights into Streptococcal Competence Regulation by the Cell-to-Cell Communication System ComRS” (PLoS Pathogens, 2016).
